Measurements reported in patent US12054498B2, “Heteroaromatic macrocyclic ether chemotherapeutic agents” (Nuvalent, Inc., priority 2020, dated 2024).

What was measured:
Format in all cases: cell-based
[1] = target: T1, Ba/F3 cells CD74-ROS1 wild-type (wt) (Homo sapiens, UniProt P08922); assay: Ba/F3 cell proliferation assay, CD74-ROS1 wild-type; settings: 72 hours, CellTiter-Glo
T1 construct: fusion of the C-terminus of ROS1 with the N-terminus of various partner proteins; host or cells: Ba/F3 (RIKEN), retroviral pMSCV-puro; the other entry of the earlier key: CD74 (P04233, HLA class II histocompatibility antigen gamma chain)
Procedure: (§1) The virus was used to infect Ba/F3 cells (RIKEN) at multiplicity of infection=1 for 1 day. Infected cells were rescued in media (RPMI-1640 with 10% fetal bovine serum and 1% streptomycin and penicillin) supplemented with mouse IL-3 (10 ng/mL) for 2 days, and stable cell lines were selected by IL-3 withdrawal and puromycin (0.8 μg/mL) for 7 days. Monoclones were selected by single-cell dilution in IL-3-free medium containing puromycin (0.8 μg/mL).
(§2) Cell Proliferation Assay Stable cells were plated at 1,000 cells/well (40 μL) in a 384-well plate for 1 day.
(§3) Test compounds (40 nL) were then added in a 3-fold dilution series using the TECAN EVO200 liquid handler and incubated for 72 hours. Plates were equilibrated at room temperature for 15 minutes followed by addition of 40 μL CellTiter-Glo reagent (Promega).
(§4) Luminescence was measured on a plate reader. Half-maximal inhibitory concentration (IC50) was calculated from percent inhibition and inhibitor concentration using four-parameter logistic regression. […] (nd=not determined).

[2] = target: T2, Ba/F3 cells CD74-ROS1 G2032R (Homo sapiens, UniProt P08922, G2032R); assay: Ba/F3 cell proliferation assay, CD74-ROS1 G2032R; settings: 72 hours, CellTiter-Glo
T2 construct: fusion of the C-terminus of ROS1 with the N-terminus of various partner proteins; host or cells: Ba/F3 (RIKEN), retroviral pMSCV-puro; the other entry of the earlier key: CD74 (P04233, HLA class II histocompatibility antigen gamma chain)
Procedure: as §1, §2, §3, §4

[3] = target: T3, Ba/F3 cells EML4-ALK wt (variant 1) (Homo sapiens, UniProt Q9UM73); assay: Ba/F3 cell proliferation assay, EML4-ALK wt (variant 1); settings: 72 hours, CellTiter-Glo
T3 construct: echinoderm microtubule-associated protein-like 4 (EML4) gene and the ALK tyrosine kinase domain; host or cells: Ba/F3 (RIKEN), retroviral pMSCV-puro; the other entry of the earlier key: EML4 (Q9HC35, Echinoderm microtubule-associated protein-like 4)
Source text: (§5) Genes encoding CD74-ROS1 wild-type (wt), CD74-ROS1 G2032R, CD74-ROS1 S1986F, CD74-ROS1 L2026M, CD74-ROS1 D2033N, EML4-ALK wt (variant 1), EML4-ALK G1202R (variant 1), EML4-ALK L1196M/G1202R (variant 1), EML4-ALK G1202R/G1269A (variant 1), EML4-ALK G1202R/L1198F (variant 1), and TPM3-TRKA were synthesized at GeneRay, cloned into the retroviral construct pMSCV-puro (Biovector), and packaged into retroviral particles. The virus was used to infect Ba/F3 cells (RIKEN) at multiplicity of infection=1 for 1 day. Infected cells were rescued in media (RPMI-1640 with 10% fetal bovine serum and 1% streptomycin and penicillin) supplemented with mouse IL-3 (10 ng/mL) for 2 days, and stable cell lines were selected by IL-3 withdrawal and puromycin (0.8 μg/mL) for 7 days. Monoclones were selected by single-cell dilution in IL-3-free medium containing puromycin (0.8 μg/mL). Transformation of desired genes was confirmed by Sanger sequencing and western blot using the following antibodies: ROS1 (CST #3287), ALK (CST #3633), and pan-TRK (Abcam #76291).
as §2, §3, §4

[4] = target: T4, Ba/F3 cells EML4-ALK L1196M/G1202R (variant 1) (Homo sapiens, UniProt Q9UM73, G1202R/L1196M); assay: Ba/F3 cell proliferation assay, EML4-ALK L1196M/G1202R (variant 1); settings: 72 hours, CellTiter-Glo
T4 construct: echinoderm microtubule-associated protein-like 4 (EML4) gene and the ALK tyrosine kinase domain; host or cells: Ba/F3 (RIKEN), retroviral pMSCV-puro; the other entry of the earlier key: EML4 (Q9HC35, Echinoderm microtubule-associated protein-like 4)
Source text: as §5, §2, §3, §4

Ba/F3 cells TPM3-TRKA = target: T5, Ba/F3 cells TPM3-TRKA (Homo sapiens, UniProt P04629); assay: Ba/F3 cell proliferation assay, TPM3-TRKA; settings: 72 hours, CellTiter-Glo, read-out: TPM3-NTRK1-wt IC50
T5 construct: host or cells: Ba/F3 (RIKEN), retroviral pMSCV-puro; the other entry of the earlier key: TPM3 (P06753, Tropomyosin alpha-3 chain)
Source text: as §5, §2, §3, §4

[5] = test system: TPM3-NTRK1-wt IC50 / primary target IC50 (e.g. CD74-ROS1-wt); assay: TRKA selectivity in Ba/F3 cells (TRKA potency divided by primary target potency); settings: for TPM3-NTRK1-wt/CD74-ROS1-G2032R selectivity ratio: TRKA potency / CD74-ROS1-G2032R potency; for TPM3-NTRK1-wt/CD74-ROS1-wt selectivity ratio: TRKA potency / CD74-ROS1-wt potency; for TPM3-NTRK1-wt/EML4-ALK-L1196M-G1202R selectivity ratio: TRKA potency / EML4-ALK-L1196M-G1202R potency; for TPM3-NTRK1-wt/EML4-ALK-wt selectivity ratio: TRKA potency / EML4-ALK-wt potency
Procedure: TRKA selectivity was calculated by dividing a compound's TRKA potency by its primary target potency (e.g. TPM3-NTRK1-wt IC50/CD74-ROS1-wt IC50). Compound selectivity can be interpreted by binning ratio values: bin A for very high selectivity, ratio >30-fold; bin B for high selectivity, ratio >10-fold; bin C for moderate selectivity, ratio ≥1; and bin D for low selectivity, ratio <1. […] (nd=not determined).

T5 sequence (P04629 510-796 limits assumed): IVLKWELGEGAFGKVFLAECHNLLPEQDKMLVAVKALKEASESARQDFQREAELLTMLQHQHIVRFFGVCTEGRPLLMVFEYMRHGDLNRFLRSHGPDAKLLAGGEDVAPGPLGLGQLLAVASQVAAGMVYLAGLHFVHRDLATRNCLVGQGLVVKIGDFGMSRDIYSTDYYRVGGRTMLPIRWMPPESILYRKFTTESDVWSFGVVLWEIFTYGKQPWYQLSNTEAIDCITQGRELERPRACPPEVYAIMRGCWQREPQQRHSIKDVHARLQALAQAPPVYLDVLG
T4 sequence (Q9UM73 with tags, fused parts or gaps L1196M/G1202R): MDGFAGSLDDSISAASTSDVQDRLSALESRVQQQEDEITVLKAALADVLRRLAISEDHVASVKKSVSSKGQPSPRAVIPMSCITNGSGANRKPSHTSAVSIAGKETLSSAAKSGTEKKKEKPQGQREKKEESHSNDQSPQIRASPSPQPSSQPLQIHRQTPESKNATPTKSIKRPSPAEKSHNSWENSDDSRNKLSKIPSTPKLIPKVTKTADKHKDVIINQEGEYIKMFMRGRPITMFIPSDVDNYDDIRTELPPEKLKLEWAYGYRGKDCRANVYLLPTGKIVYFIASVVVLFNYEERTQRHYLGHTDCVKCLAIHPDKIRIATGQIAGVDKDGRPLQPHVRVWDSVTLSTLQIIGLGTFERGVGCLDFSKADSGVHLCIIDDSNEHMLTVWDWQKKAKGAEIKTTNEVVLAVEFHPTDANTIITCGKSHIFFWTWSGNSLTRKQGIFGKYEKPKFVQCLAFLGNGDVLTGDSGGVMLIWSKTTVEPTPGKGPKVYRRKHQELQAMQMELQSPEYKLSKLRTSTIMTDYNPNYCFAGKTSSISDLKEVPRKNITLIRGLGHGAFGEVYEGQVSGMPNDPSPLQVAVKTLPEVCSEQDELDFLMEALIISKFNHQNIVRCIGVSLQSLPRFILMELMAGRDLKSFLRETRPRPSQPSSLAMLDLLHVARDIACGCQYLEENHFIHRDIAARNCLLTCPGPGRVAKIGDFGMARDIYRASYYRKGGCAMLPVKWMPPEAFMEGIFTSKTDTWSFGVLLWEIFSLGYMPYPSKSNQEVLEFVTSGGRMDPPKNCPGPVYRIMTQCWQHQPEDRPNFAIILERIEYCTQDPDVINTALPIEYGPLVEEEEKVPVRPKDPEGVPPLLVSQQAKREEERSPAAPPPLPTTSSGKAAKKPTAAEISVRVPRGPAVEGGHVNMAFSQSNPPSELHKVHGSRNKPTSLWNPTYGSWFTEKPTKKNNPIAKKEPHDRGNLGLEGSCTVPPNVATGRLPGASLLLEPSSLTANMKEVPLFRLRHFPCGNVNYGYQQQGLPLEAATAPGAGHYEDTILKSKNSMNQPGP
T3 sequence (Q9UM73 with tags, fused parts or gaps): as the sequence (Q9UM73 with tags, fused parts or gaps L1196M/G1202R) above, with M635L, R641G counted along it
T2 sequence (P08922 1883-2347 G2032R limits assumed): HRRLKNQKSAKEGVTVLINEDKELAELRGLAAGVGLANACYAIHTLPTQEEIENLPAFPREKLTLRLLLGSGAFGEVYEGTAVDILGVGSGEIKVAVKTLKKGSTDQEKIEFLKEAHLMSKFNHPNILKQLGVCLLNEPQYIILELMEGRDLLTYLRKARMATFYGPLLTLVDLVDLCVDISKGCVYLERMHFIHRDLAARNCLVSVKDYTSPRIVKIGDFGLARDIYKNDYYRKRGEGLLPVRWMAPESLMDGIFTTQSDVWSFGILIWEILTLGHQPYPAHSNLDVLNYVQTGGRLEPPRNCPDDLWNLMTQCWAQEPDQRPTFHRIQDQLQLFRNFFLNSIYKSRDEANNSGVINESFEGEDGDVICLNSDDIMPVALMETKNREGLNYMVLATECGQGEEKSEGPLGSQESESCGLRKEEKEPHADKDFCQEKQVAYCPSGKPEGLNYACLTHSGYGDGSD
T1 sequence (P08922 1883-2347 limits assumed): as the sequence (P08922 1883-2347 G2032R limits assumed) above, with R150G counted along it

Row | SMILES | IC50 [1] | IC50 [2] | IC50 [3] | IC50 [4] | IC50 (Ba/F3 cells TPM3-TRKA) | TPM3-NTRK1-wt/CD74-ROS1-G2032R selectivity ratio [5] | TPM3-NTRK1-wt/CD74-ROS1-wt selectivity ratio [5] | TPM3-NTRK1-wt/EML4-ALK-L1196M-G1202R selectivity ratio [5] | TPM3-NTRK1-wt/EML4-ALK-wt selectivity ratio [5]
1 | CCn1nc(OC)c2c1-c1cnc(N)c(c1)O[C@H](C)c1cc(F)ccc1-c1cc(C)nn1C2 [Example 32, (19R)-3-ethyl-16-fluoro-5-methoxy-10,19-dimethyl-20-oxa-3,4,8,9,23-pentaazapentacyclo[19.3.1.0^2,^6.0^8,^12.0^13,^18]pentacosa-1(24),2(6),4,9,11,13,15,1 7,21(25),22-decaen-22-amine] | 0.1 to 50 nM | 0.1 to 50 nM | 0.1 to 50 nM | 50 to 500 nM | 50 to 500 nM | A (bin A for very high selectivity, ratio >30-fold) | A (bin A for very high selectivity, ratio >30-fold) | C (bin C for moderate selectivity, ratio ≥1) | B (bin B for high selectivity, ratio >10-fold)
2 | Cc1nc2c(s1)-c1ccc(F)cc1[C@@H](C)Oc1cc(cnc1N)-c1c(C#N)nn(C)c1C2 [Example 68, (19R)-22-amino-16-fluoro-5,10,19-trimethyl-20-oxa-11-thia-4,5,9,23-tetraazapentacyclo[19.3.1.0^2,^6.0^8,^12.0^13,^18]pentacosa-1(24),2(6),3,8(12),9,13,15,17,21(25),22-decaene-3-carbonitrile] | – | 0.1 to 50 nM | – | 50 to 500 nM | > 500 nM | A (bin A for very high selectivity, ratio >30-fold) | – | C (bin C for moderate selectivity, ratio ≥1) | –
3 | CCn1nc(Cl)c2c1-c1cnc(N)c(c1)O[C@H](C)c1cc(F)ccc1-c1ncnn1C2 [Example 43, (19R)-5-chloro-3-ethyl-16-fluoro-19-methyl-20-oxa-3,4,8,9,11,23-hexaazapentacyclo[19.3.1.0^2,^6.0^8,^12.0^13,^18]pentacosa-1(24),2,(6),4,9,11,13,15,17,21(25),22-decaen-22-amine] | 0.1 to 50 nM | 0.1 to 50 nM | 50 to 500 nM | 50 to 500 nM | > 500 nM | A (bin A for very high selectivity, ratio >30-fold) | A (bin A for very high selectivity, ratio >30-fold) | C (bin C for moderate selectivity, ratio ≥1) | B (bin B for high selectivity, ratio >10-fold)
4 | CCn1ncc2c1-c1cnc(N)c(c1)O[C@H](C)c1cc(F)ccc1-c1c(ncn1C)C2 [Example 11, (19R)-3-ethyl-16-fluoro-11,19-dimethyl-20-oxa-3,4,9,11,23-pentaazapentacyclo[19.3.1.0^2,^6.0^8,^12.0^13,^18]pentacosa-1(24),2(6),4,8(12),9,13,15,17,21(25),22-decaen-22-amine] | – | 0.1 to 50 nM | – | 50 to 500 nM | > 500 nM | A (bin A for very high selectivity, ratio >30-fold) | – | B (bin B for high selectivity, ratio >10-fold) | –
5 | CCc1onc2c1-c1cnc(N)c(c1)O[C@H](C)c1cc(F)ccc1-c1nn(C)nc1C2 [Example 31, (19R)-3ethyl-16-fluoro-10,19-dimethyl-4,20-dioxa-5,9,10,11,23-pentaazapentacyclo[19.3.1.0^2,^6.0^8,^12.0^13,^18]pentacosa-1(24),2,5,8,11,13,15,17,21(25),22-decaen-22-amine] | – | 0.1 to 50 nM | – | 50 to 500 nM | 50 to 500 nM | A (bin A for very high selectivity, ratio >30-fold) | – | C (bin C for moderate selectivity, ratio ≥1) | –
6 | C[C@H]1Oc2cc(cnc2N)-c2c(C#N)nn(C)c2Cc2ncsc2-c2ccc(F)cc21 [Example 57, (19R)-22-amino-16-fluoro-5,19-dimethyl-20-oxa-11-thia-4,5,9,23-tetraazapentacyclo[19.3.1.0^2,^6.0^8,^12.0^13,^18]pentacosa-1(24),2(6),3,8(12),9,13,15,17,21(25),22-decaene-3-carbonitrile] | – | 0.1 to 50 nM | – | 50 to 500 nM | > 500 nM | A (bin A for very high selectivity, ratio >30-fold) | – | C (bin C for moderate selectivity, ratio ≥1) | –

Continued, in another order:

Row | IC50 [1] | IC50 [2] | IC50 [3] | IC50 [4] | IC50 (Ba/F3 cells TPM3-TRKA) | SMILES | TPM3-NTRK1-wt/CD74-ROS1-G2032R selectivity ratio [5] | TPM3-NTRK1-wt/CD74-ROS1-wt selectivity ratio [5] | TPM3-NTRK1-wt/EML4-ALK-L1196M-G1202R selectivity ratio [5] | TPM3-NTRK1-wt/EML4-ALK-wt selectivity ratio [5]
7 | – | 0.1 to 50 nM | 0.1 to 50 nM | 0.1 to 50 nM | 50 to 500 nM | CCn1ncc2c1-c1cnc(N)c(c1)O[C@H](C)c1cc(F)ccc1-c1ncn(C)c1C2 [Example 6, (19R)-3-ethyl-16-fluoro-9,19-dimethyl-20-oxa-3,4,9,11,23-pentaazapentacyclo[19.3.1.0^2,^6.0^8,^12.0^13,^18]pentacosa-1(24),2(6),4,8(12),10,13,15,17,21(25),22-decaen-22-amine] | A (bin A for very high selectivity, ratio >30-fold) | – | C (bin C for moderate selectivity, ratio ≥1) | A (bin A for very high selectivity, ratio >30-fold)
8 | – | 0.1 to 50 nM | 0.1 to 50 nM | 50 to 500 nM | > 500 nM | CCn1ncc2c1-c1cnc(N)c(c1)O[C@H](C)c1cc(F)ccc1-c1c(Cl)cnn1C2 [Example 27, (19R)-11-chloro-3-ethyl-16-fluoro-19-methyl-20-oxa-3,4,8,9,23-pentaazapentacyclo[19.3,1.0^2,^6.0^8,^12.0^13,^18]pentacosa-1(24),2(6),4,9,11,13,15,17,21(25),22-decaen-22-amine] | A (bin A for very high selectivity, ratio >30-fold) | – | C (bin C for moderate selectivity, ratio ≥1) | B (bin B for high selectivity, ratio >10-fold)
9 | – | 0.1 to 50 nM | 0.1 to 50 nM | 0.1 to 50 nM | > 500 nM | Cc1nn(CC2CC2)c2c1Cc1nccnc1-c1ccc(F)cc1[C@@H](C)Oc1cc-2cnc1N [Example 77, (20R)-3-(cyclopropylmethyl)-17-fluoro-5,20-dimethyl-21-oxa-3,4,9,12,24-pentaazapentacyclo[20.3.1.0^2,^6.0^8,^13.0^14,^19]hexacosa-1(25),2(6),4,8(13),9,11,14,16,18,22(26),23-undecaen-23-amine] | A (bin A for very high selectivity, ratio >30-fold) | – | A (bin A for very high selectivity, ratio >30-fold) | A (bin A for very high selectivity, ratio >30-fold)
